From US9521846B2, “Template-fixed peptidomimetics with antimicrobial activity” (priority 2006, dated 2016)
In brackets after ≈: the same amount, converted by molar mass. Non-standard residues stand in square brackets, D forms with d. Residues, ends and D or L forms follow the SMILES beside them. hSer = N[C@@H](CCO)C(=O)O; Dab = NCC[C@H](N)C(=O)O; Abu = CC[C@H](N)C(=O)O

Experiments:
[1] = Plasma stability, rat plasma; format: in vitro ADME
[2] = system: human red blood cells (hRBC); test: Hemolysis; format: cell-based; details: 100
[3] = system: Pseudomonas aeruginosa P1021913; format: cell-based; details: P1021913
Summary of the method: (§1)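 Inoculum standardised to 0.5 McFarland (approx. 10^6 CFU/ml) in Mueller-Hinton + 0.02% BSA was combined equally with serially halved peptide concentrations in the same medium, per a modified NCCLS microdilution procedure.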

[4] = system: Pseudomonas aeruginosa IMP 1 Livermore 3140; format: cell-based; details: IMP 1 Livermore 3140
Summary of the method: as §1

[5] = system: Pseudomonas aeruginosa P8191900; format: cell-based; details: P8191900
Summary of the method: as §1

[6] = system: Pseudomonas aeruginosa P1021903; format: cell-based; details: P1021903
Summary of the method: as §1

[7] = Plasma stability, human plasma; format: in vitro ADME
P. aeruginosa ATCC 27853 = format: cell-based, Pseudomonas aeruginosa; details: ATCC 27853
Summary of the method: as §1

HELA cells (Acc57) = test: Cytotoxicity assay, MTT reduction (LC 50, GI 50); format: cell-based
Summary of the method: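 HeLa cells seeded at 7.0×10^3 cells/well, grown 24 h, then exposed to peptides at 12.5, 25 and 50 μM in triplicate for 48 h at 37 °C; MTT (0.5 mg/ml, 2 h), A595 read. Percent growth was taken relative to time-zero plates; LC50 and GI50 were interpolated by linear trend at −50% and 50% growth.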

CC[C@H](C)[C@@H]1NC(=O)[C@H](Cc2c[nH]c3ccccc23)NC(=O)[C@H]([C@@H](C)O)NC(=O)[C@@H]2CCCN2C(=O)[C@H]2CCCN2C(=O)[C@H](CCN)NC(=O)[C@H](C)NC(=O)[C@H](CCN)NC(=O)[C@H](CCN)NC(=O)[C@H](Cc2c[nH]c3ccccc23)NC(=O)[C@H](CCN)NC(=O)[C@H](CCN)NC(=O)[C@H](CCCCN)NC(=O)[C@H](CCC(N)=O)NC1=O [Example 29] (cyclo(TWIQK[Dab][Dab]W[Dab][Dab]A[Dab][dP]P))
Stability rat Plasma t1/2 [1]: 5 h
Hemolysis at 100 μg/ml [2]: 0.5%
MIC P. aeruginosa P1021913 [3]: 0.21 µg/mL (≈ 0.131 µM)
MIC P. aeruginosa IMP1 Livermore 3140 [4]: 0.40 µg/mL (≈ 0.249 µM)
MIC P. aeruginosa P8191900 [5]: 0.13 µg/mL (≈ 0.0808 µM)
MIC P. aeruginosa P1021903 [6]: 0.13 µg/mL (≈ 0.0808 µM)
Stability human Plasma t1/2 [7]: 5 h
Average MIC (P. aeruginosa): 0.19 µg/mL
MIC P. aeruginosa ATCC 27853 (P. aeruginosa ATCC 27853): 0.09 µg/mL (≈ 0.0559 µM)
Cytotoxicity GI50 Hela cells (HELA cells (Acc57)): 50 µM

CC[C@H](C)[C@@H]1NC(=O)[C@H](Cc2c[nH]c3ccccc23)NC(=O)[C@H]([C@@H](C)O)NC(=O)[C@@H]2CCCN2C(=O)[C@H]2CCCN2C(=O)[C@H](CCN)NC(=O)[C@H](CCO)NC(=O)[C@H](CCN)NC(=O)[C@H](CCN)NC(=O)[C@H](Cc2c[nH]c3ccccc23)NC(=O)[C@H](CCN)NC(=O)[C@H](CCN)NC(=O)[C@H](CCCCN)NC(=O)[C@H](CCN)NC1=O [Example 35] (cyclo(TWI[Dab]K[Dab][Dab]W[Dab][Dab][hSer][Dab][dP]P))
Stability rat Plasma t1/2 [1]: 5 h
Hemolysis at 100 μg/ml [2]: 0.2%
MIC P. aeruginosa P1021913 [3]: 0.24 µg/mL (≈ 0.149 µM)
MIC P. aeruginosa IMP1 Livermore 3140 [4]: 0.31 µg/mL (≈ 0.192 µM)
MIC P. aeruginosa P8191900 [5]: 0.22 µg/mL (≈ 0.137 µM)
MIC P. aeruginosa P1021903 [6]: 0.10 µg/mL (≈ 0.0621 µM)
Stability human Plasma t1/2 [7]: 5 h
Average MIC (P. aeruginosa): 0.18 µg/mL
MIC P. aeruginosa ATCC 27853 (P. aeruginosa ATCC 27853): 0.05 µg/mL (≈ 0.031 µM)
Cytotoxicity GI50 Hela cells (HELA cells (Acc57)): 48 µM

CC[C@H](C)[C@@H]1NC(=O)[C@H](Cc2c[nH]c3ccccc23)NC(=O)[C@H](C)NC(=O)[C@@H]2CCCN2C(=O)[C@H]2CCCN2C(=O)[C@H](CCN)NC(=O)[C@H](C)NC(=O)[C@H](CCN)NC(=O)[C@H](CCN)NC(=O)[C@H](Cc2c[nH]c3ccccc23)NC(=O)[C@H](CCN)NC(=O)[C@H](CCN)NC(=O)[C@H](CCCCN)NC(=O)[C@H](CCN)NC1=O [Example 22] (cyclo(AWI[Dab]K[Dab][Dab]W[Dab][Dab]A[Dab][dP]P))
Stability rat Plasma t1/2 [1]: 5 h
Hemolysis at 100 μg/ml [2]: 0.2%
MIC P. aeruginosa P1021913 [3]: 0.16 µg/mL (≈ 0.103 µM)
MIC P. aeruginosa IMP1 Livermore 3140 [4]: 0.24 µg/mL (≈ 0.155 µM)
MIC P. aeruginosa P8191900 [5]: 0.09 µg/mL (≈ 0.058 µM)
MIC P. aeruginosa P1021903 [6]: 0.09 µg/mL (≈ 0.058 µM)
Stability human Plasma t1/2 [7]: 5 h
Average MIC (P. aeruginosa): 0.12 µg/mL
MIC P. aeruginosa ATCC 27853 (P. aeruginosa ATCC 27853): 0.02 µg/mL (≈ 0.0129 µM)
Cytotoxicity GI50 Hela cells (HELA cells (Acc57)): 50 µM

CC[C@@H]1NC(=O)[C@H](CCN)NC(=O)[C@H](CCN)NC(=O)[C@H](Cc2c[nH]c3ccccc23)NC(=O)[C@H](CCN)NC(=O)[C@H](CCN)NC(=O)[C@H](CCCCN)NC(=O)[C@H](CCN)NC(=O)[C@H]([C@@H](C)CC)NC(=O)[C@H](Cc2c[nH]c3ccccc23)NC(=O)[C@H]([C@@H](C)O)NC(=O)[C@@H]2CCCN2C(=O)[C@H]2CCCN2C(=O)[C@H](CCN)NC1=O [Example 6] (cyclo(TWI[Dab]K[Dab][Dab]W[Dab][Dab][Abu][Dab][dP]P))
Stability rat Plasma t1/2 [1]: 5 h
Hemolysis at 100 μg/ml [2]: 0.2%
MIC P. aeruginosa P1021913 [3]: 0.16 µg/mL (≈ 0.1 µM)
MIC P. aeruginosa IMP1 Livermore 3140 [4]: 0.24 µg/mL (≈ 0.15 µM)
MIC P. aeruginosa P8191900 [5]: 0.10 µg/mL (≈ 0.0627 µM)
MIC P. aeruginosa P1021903 [6]: 0.09 µg/mL (≈ 0.0564 µM)
Stability human Plasma t1/2 [7]: 5 h
Average MIC (P. aeruginosa): 0.13 µg/mL
MIC P. aeruginosa ATCC 27853 (P. aeruginosa ATCC 27853): 0.05 µg/mL (≈ 0.0313 µM)
Cytotoxicity GI50 Hela cells (HELA cells (Acc57)): 50 µM

CC[C@H](C)[C@@H]1NC(=O)[C@H](Cc2c[nH]c3ccccc23)NC(=O)[C@H]([C@@H](C)O)NC(=O)[C@@H]2CCCN2C(=O)[C@H]2CCCN2C(=O)[C@H](CCN)NC(=O)[C@H](C)NC(=O)[C@H](CCN)NC(=O)[C@H](CCN)NC(=O)[C@H](Cc2c[nH]c3ccccc23)NC(=O)[C@H](CCN)NC(=O)[C@H](CCCCN)NC(=O)[C@H](CCCCN)NC(=O)[C@H](CCN)NC1=O [Example 25] (cyclo(TWI[Dab]KK[Dab]W[Dab][Dab]A[Dab][dP]P))
Stability rat Plasma t1/2 [1]: 5 h
Hemolysis at 100 μg/ml [2]: 0.1%
MIC P. aeruginosa P1021913 [3]: 0.13 µg/mL (≈ 0.0808 µM)
MIC P. aeruginosa IMP1 Livermore 3140 [4]: 0.24 µg/mL (≈ 0.149 µM)
MIC P. aeruginosa P8191900 [5]: 0.10 µg/mL (≈ 0.0622 µM)
MIC P. aeruginosa P1021903 [6]: 0.05 µg/mL (≈ 0.0311 µM)
Stability human Plasma t1/2 [7]: 5 h
Average MIC (P. aeruginosa): 0.11 µg/mL
MIC P. aeruginosa ATCC 27853 (P. aeruginosa ATCC 27853): 0.05 µg/mL (≈ 0.0311 µM)
Cytotoxicity GI50 Hela cells (HELA cells (Acc57)): 50 µM

CC[C@H](C)[C@@H]1NC(=O)[C@H](Cc2c[nH]c3ccccc23)NC(=O)[C@H]([C@@H](C)O)NC(=O)[C@@H]2CCCN2C(=O)[C@H]2CCCN2C(=O)[C@H](CCCCN)NC(=O)[C@H](C)NC(=O)[C@H](CCN)NC(=O)[C@H](CCN)NC(=O)[C@H](Cc2c[nH]c3ccccc23)NC(=O)[C@H](CCN)NC(=O)[C@H](CCN)NC(=O)[C@H](CCCCN)NC(=O)[C@H](CCN)NC1=O [Example 28] (cyclo(TWI[Dab]K[Dab][Dab]W[Dab][Dab]AK[dP]P))
Stability rat Plasma t1/2 [1]: 5 h
Hemolysis at 100 μg/ml [2]: 0.1%
MIC P. aeruginosa P1021913 [3]: 0.16 µg/mL (≈ 0.0994 µM)
MIC P. aeruginosa IMP1 Livermore 3140 [4]: 0.24 µg/mL (≈ 0.149 µM)
MIC P. aeruginosa P8191900 [5]: 0.10 µg/mL (≈ 0.0622 µM)
MIC P. aeruginosa P1021903 [6]: 0.07 µg/mL (≈ 0.0435 µM)
Stability human Plasma t1/2 [7]: 5 h
Average MIC (P. aeruginosa): 0.12 µg/mL
MIC P. aeruginosa ATCC 27853 (P. aeruginosa ATCC 27853): 0.04 µg/mL (≈ 0.0249 µM)
Cytotoxicity GI50 Hela cells (HELA cells (Acc57)): 50 µM
